Columns and labels:
[1] = molecular target: 3',5'-cyclic-AMP phosphodiesterase 4D (Homo sapiens, UniProt Q08499); format: functional
[2] = molecular target: T1, Neuropeptide Y receptor type 1 (Homo sapiens, UniProt P25929)
T1 sequence (P25929 whole entry): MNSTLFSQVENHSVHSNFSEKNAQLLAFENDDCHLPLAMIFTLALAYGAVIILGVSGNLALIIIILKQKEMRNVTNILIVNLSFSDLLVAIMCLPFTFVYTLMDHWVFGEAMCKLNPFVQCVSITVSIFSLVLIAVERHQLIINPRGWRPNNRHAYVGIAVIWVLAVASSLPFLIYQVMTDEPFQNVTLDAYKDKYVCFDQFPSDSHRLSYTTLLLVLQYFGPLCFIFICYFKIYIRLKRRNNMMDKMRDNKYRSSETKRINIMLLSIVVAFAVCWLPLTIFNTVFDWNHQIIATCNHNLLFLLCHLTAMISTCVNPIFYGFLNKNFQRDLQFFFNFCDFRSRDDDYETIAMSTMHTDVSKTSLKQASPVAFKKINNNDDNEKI

[3] = molecular target: Vasopressin V2 receptor (Homo sapiens, UniProt P30518)
[4] = molecular target: T2, Equilibrative nucleoside transporter 1 (Homo sapiens, UniProt Q99808)
T2 sequence (Q99808 whole entry): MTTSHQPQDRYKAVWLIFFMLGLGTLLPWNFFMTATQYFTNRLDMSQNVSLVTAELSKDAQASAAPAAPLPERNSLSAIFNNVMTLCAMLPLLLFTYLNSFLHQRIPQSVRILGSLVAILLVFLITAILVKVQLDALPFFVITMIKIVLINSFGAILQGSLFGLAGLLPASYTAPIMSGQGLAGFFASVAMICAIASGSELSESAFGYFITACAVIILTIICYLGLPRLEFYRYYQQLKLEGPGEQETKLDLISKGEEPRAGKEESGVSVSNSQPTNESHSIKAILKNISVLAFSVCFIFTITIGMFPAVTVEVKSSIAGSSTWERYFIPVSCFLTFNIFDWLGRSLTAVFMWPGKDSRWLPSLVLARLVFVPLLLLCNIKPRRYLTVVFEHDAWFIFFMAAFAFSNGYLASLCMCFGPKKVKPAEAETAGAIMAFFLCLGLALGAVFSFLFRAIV
Further: assay procedure not described here.

Sequence of 3',5'-cyclic-AMP phosphodiesterase 4D (Q08499 whole entry): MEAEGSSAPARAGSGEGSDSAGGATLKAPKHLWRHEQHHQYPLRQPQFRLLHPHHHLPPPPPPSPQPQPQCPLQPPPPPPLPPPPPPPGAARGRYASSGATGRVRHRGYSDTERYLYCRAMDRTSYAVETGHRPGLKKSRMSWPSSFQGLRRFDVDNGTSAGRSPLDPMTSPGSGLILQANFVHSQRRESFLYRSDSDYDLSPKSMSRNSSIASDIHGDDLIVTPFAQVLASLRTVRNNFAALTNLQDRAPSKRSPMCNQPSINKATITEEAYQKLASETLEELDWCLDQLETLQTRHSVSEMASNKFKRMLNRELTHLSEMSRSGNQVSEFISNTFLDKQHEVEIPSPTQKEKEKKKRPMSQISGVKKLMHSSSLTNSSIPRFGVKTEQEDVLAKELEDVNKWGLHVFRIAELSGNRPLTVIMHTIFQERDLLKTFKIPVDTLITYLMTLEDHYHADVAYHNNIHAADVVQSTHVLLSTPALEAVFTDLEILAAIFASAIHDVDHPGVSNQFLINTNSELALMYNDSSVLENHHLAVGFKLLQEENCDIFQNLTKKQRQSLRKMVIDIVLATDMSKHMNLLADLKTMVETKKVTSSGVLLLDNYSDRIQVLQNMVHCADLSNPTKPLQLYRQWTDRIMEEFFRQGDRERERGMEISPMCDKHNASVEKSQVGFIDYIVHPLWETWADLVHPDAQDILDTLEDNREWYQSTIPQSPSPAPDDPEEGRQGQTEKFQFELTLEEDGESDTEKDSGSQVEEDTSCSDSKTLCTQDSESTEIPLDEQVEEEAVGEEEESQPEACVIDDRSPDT

AC50 [1]: > 30 µM
AC50 [2]: > 30 µM
AC50 [3]: > 30 µM
AC50 [4]: > 30 µM
Sequence: HYDROXOCOBALAMIN

Source: ChEMBL document CHEMBL5291721, “A preclinical secondary pharmacology resource illuminates target-adverse drug reaction associations of marketed drugs” (Nat Commun, 2023)
